Where two headings read alike, the source gives them in different places. Residues, ends and D or L forms follow the SMILES beside them.
Experiments:
[1] = system: Empedobacter brevis strain FERM BP-8113 microbial cells; assay: Production of peptide using microbial cells of Empedobacter brevis; type: cell-based; settings: microbial cell suspension 100 g/L mixed 1:1 with 200 mM carboxy component and 400 mM amino acid, pH 9.0, 10 mM EDTA, 18° C., 2 hours
Protocol: A 50 mL medium (pH 6.2) containing 5 grams (hereinafter, “g”) of glucose, 5 g of ammonium sulfate, 1 g of monopotassium phosphate, 3 g of dipotassium phosphate, 0.5 g of magnesium sulfate, 10 g of yeast extract and 10 g of peptone in 1 liter (hereinafter, “L”) was transferred to a 500 mL Sakaguchi flask and sterilized at 115° C. for 15 minutes. This medium,was then inoculated with one loopful of the culture broth of Empedobacter brevis strain FERM BP-8113 (Depositary institution: National Institute for Advanced Industrial Science and Technology, International Patent Organism Depositary, Address of depositary institution: Chuo Dai-6, 1-1 Higashi 1-Chome, Tsukuba-shi, Ibaraki-ken, Japan, International deposit transfer date: Jul. 8, 2002) that had been cultured at 30° C. for 16 hours in the same medium, followed by shake culturing at 30° C. for 16 hours and 120 strokes/min.

[2] = system: peptide-producing enzyme (Mono S fraction) from Empedobacter brevis strain FERM BP-8113; assay: Enzyme substrate specificity (1)-(10), (13), (14); type: biochemical; settings: L-amino acid 150 mM, pH 9.0, 25° C., 3 hours
Method in brief: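 Mono S-purified peptide-forming enzyme from Empedobacter brevis FERM BP-8113, given L-amino acid esters (hydrochlorides) or amides as carboxy component with amino acids, C-protected amino acids, methylamine, β-amino acids or peptides as amine component. Dipeptide/oligopeptide product quantified; Tween-80 0.1% added with L-Trp-OMe.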

[3] = system: enzyme (SP-Sepharose HP fraction) derived from Sphingobacterium sp. strain FERM BP-8124; type: biochemical; parameters: key to Produced peptide (mM): +: those peptides for which production was confirmed but which were unable to be quantified due to the absence of a standard; a trace amount; settings: 0.33 units enzyme, pH 9.0, 25° C., 1.5 hours; for Produced peptide: carboxy component 100 mM; for Produced peptide (mM): Table 15-4, amides or methylamine as components, 100 mM / 150 mM
Protocol: Substrate specificity was examined for enzyme derived from Sphingobacterium sp. strain FERM BP-8124 (Depositary institution: National Institute for Advanced Industrial Science and Technology, International Patent Organism Depositary, Address of depositary institution: Central. 6, 1-1-1 Higashi, Tsukuba City, Ibaraki Prefecture, Japan, International deposit date: Jul. 22, 2002). 100 μl of 100 mM borate buffer (pH 9.0) containing the various carboxy components at a final concentration of 100 mM and the various amine components at a final concentration of 150 mM shown in Tables 15-1 to 15-4, the SP-Sepharose HP fraction enzyme purified in Example 22 (addition of 0.33 units in the reaction liquid) and 10 mM EDTA were allowed to react at 25° C. for 1.5 hours. […] In addition, hydrochlorides were used for all carboxy components.
Substrate specificity with respect to oligopeptide production was examined for enzyme derived from Sphingobacterium sp. strain FERM BP-8124 (Depositary institution: National Institute for Advanced Industrial Science and Technology,.International Patent Organism Depositary, Address of depositary institution: Chuo Dai-6, 1-1 Higashi 1-Chome, Tsukuba-shi, Ibaraki-ken, Japan, International deposit date: Jul. 22, 2002). A 100 μl aliquot of 100 mM borate buffer (pH 9.0) containing the various carboxy components at a final concentration of 100 mM and the various amine components at a final concentration of 150 mM shown in Table 16, the SP-Sepharose HP fraction enzyme purified in Example 22 (addition of 0.33 units in the reaction liquid) and 10 mM EDTA were allowed to react for 1.5 hours at 25° C. Furthermore, hydrochloride salts were used for all carboxy components.

[4] = system: peptide-producing enzyme (Mono S fraction) from Empedobacter brevis strain FERM BP-8113; assay: Enzyme substrate specificity (1)-(10), (13), (14); type: biochemical; parameters: key: +: those peptides for which production was confirmed but which were unable to be quantified due to the absence of a standard; a trace amount; settings: pH 9.0, 25° C., 3 hours
Text: Ester specificity was examined in the case of using L-amino acid ester for the carboxy component. […] The amounts of L-Ala-L-Gln produced in this reaction are shown in Table 4 (HCl represents hydrochloride in Table 4). Peptide production was examined in the case of using L-alanine methyl ester for the carboxy component and using various L-amino acids for the amine component. […] (The “+” mark indicates those peptides for which production was confirmed but which were unable to be quantified due to the absence of a standard, while “tr” indicates a trace amount.) Peptide production was examined in the case of using various types of L-amino acid methyl esters for the carboxy component and using L-glutamine for the amine component. […] Peptide production was examined in the case of using various L-amino acid methyl esters for the carboxy component and various L-amino acids for the amine component. […] (The “tr” indicates a trace amount.) Furthermore, Tween-80 was added to the reaction system to a final concentration of 0.1% in the case of using L-Trp-OMe. (The “+” mark indicates those peptides for which production was confirmed but which were unable to be quantified due to the absence of a standard.) […] (The “tr” indicates a trace amount.) Peptide production was examined using various L-amino acid amides for the carboxy component, and various L-amino acids for the amine component. […] Peptide production was examined in the case of using various L-alanine methyl esters for the carboxy component and C-protected L-amino acids for the amine component. […] Peptide production was examined in the case of using various amino acid methyl esters for the carboxy component and methylamine for the amine component. […] Peptide production was examined in the case of using β-amino acid ester for the carboxy component or β-amino acid for the amine component. […] (The “tr” indicates a trace amount.) Oligopeptide production was examined in the case of using L-amino acid ester for the carboxy component and peptide for the amine component. […] Substrate specificity was additionally assessed using the same enzyme fraction as that used in Example 5. […] (A “+” mark indicates those for which production was confirmed but which were unable to be quantified due to the absence of a standard, while “tr” indicates a trace amount). Substrate specificity with respect to oligopeptide production was assessed using the same enzyme fraction as Example 26. […] (A “+” mark indicates those for which production was confirmed but which were unable to be quantified due to the absence of a standard, while “tr” indicates a trace amount). It should be noted that hydrochlorides were used for all of the carboxy components.

[5] = Comparison of ability to catalyze peptide production with known enzymes; type: biochemical; settings: for L-Ala-L-Gln production rate: 100 mM L-alanine methyl ester, 200 mM L-glutamine, borate buffer pH 9.0, 25° C., enzyme amount as in Table 14; for Ratio of L-Ala-L-Gln production rate per enzyme unit weight: enzyme of present invention = 100.0
Protocol: The peptide formation ability of the present enzyme was compared with that of known enzymes. […] The enzyme uniformly purified in Example 3 was used for the source of the enzyme of the present invention. The reaction was carried out by adding enzyme to 100 μl of borate buffer (pH 9.0) containing 100 mM L-alanine methyl ester and 200 mM L-glutamine and allowing to react at 25° C. Furthermore, enzyme dissolved in 10 mM acetate buffer (pH 5.0) containing 1 mM EDTA was used for the carboxypeptidase, while enzyme dissolved in 10 mM acetate buffer (pH 5.0) containing 2 mM EDTA, 0.1 M KCl and 5 mM dithiothreitol was used for the thiol endopeptidase.

[6] = L-amino acid methyl ester hydrochloride 100 mM
[7] = Table 15-3, amine component 150 mM
[8] = 100 mM L-alanine methyl ester hydrochloride
[9] = Table 15-1, amine component 150 mM
[10] = L-amino acid amide hydrochloride 100 mM as carboxy component

Molecule: NCC(=O)N[C@@H](Cc1cnc[nH]1)C(=O)O [Gly-L-His] (H-Gly-His-OH)
- Produced peptide [1]: 22.1 mM
- Produced peptide [2, 6]: 31.6 mM
- Produced peptide [3, 7]: 36.2 mM

Molecule: C[C@H](N)C(=O)N[C@@H](CCCN=C(N)N)C(=O)O [L-Ala-L-Arg] (H-Ala-Arg-OH)
- Produced peptide [1]: 72.1 mM
- Produced peptide [2, 8]: 88.0 mM
- Produced peptide [3, 9]: 72.2 mM

Molecule: C[C@H](N)C(=O)N[C@@H](Cc1cnc[nH]1)C(=O)O [L-Ala-L-His] (H-Ala-His-OH)
- Produced peptide [1]: 52.1 mM
- Produced peptide [2, 8]: 66.9 mM
- Produced peptide [2, 10]: 3.9 mM
- Produced peptide [3, 9]: 73.6 mM
- Produced peptide (mM) [3]: tr

Molecule: CC(C)C[C@H](NC(=O)[C@H](C)N)C(=O)O [L-Ala-L-Leu] (H-Ala-Leu-OH)
- Produced peptide [1]: 38.2 mM
- Produced peptide [2, 8]: 45.3 mM
- Produced peptide [3, 9]: 33.0 mM

Molecule: CSCC[C@H](NC(=O)[C@H](C)N)C(=O)O [L-Ala-L-Met] (H-Ala-Met-OH)
- Produced peptide [1]: 68.3 mM
- Produced peptide [2, 8]: 83.3 mM
- Produced peptide [2, 10]: 3.4 mM
- Produced peptide [3, 9]: 86.9 mM
- Produced peptide (mM) [3]: tr

Molecule: C[C@H](N)C(=O)N[C@@H](Cc1ccccc1)C(=O)O [L-Ala-L-Phe]
- Produced peptide [1]: 62.4 mM
- Produced peptide [2, 8]: 74.4 mM
- Produced peptide [3, 9]: 69.5 mM

Molecule: C[C@H](N)C(=O)N1CCC[C@H]1C(=O)O [L-Ala-L-Pro] (H-Ala-Pro-OH)
- Produced peptide [3, 9]: 1.5 mM
- Produced peptide (mM) ([4]; 100 mM L-alanine methyl ester hydrochloride, L-amino acid 150 mM): tr

Molecule: C[C@H](N)C(=O)N[C@@H](CO)C(=O)O [L-Ala-L-Ser] (H-Ala-Ser-OH)
- Produced peptide [1]: 51.3 mM
- Produced peptide [2, 8]: 62.5 mM
- Produced peptide [3, 9]: 43.8 mM

Molecule: CC[C@H](C)[C@H](N)C(=O)N[C@@H](CCSC)C(=O)O [L-Ile-L-Met] (H-Ile-Met-OH)
- Produced peptide [1]: 8.3 mM
- Produced peptide [2, 6]: 10.0 mM
- Produced peptide [3, 7]: 5.1 mM

Molecule: CSCC[C@H](N)C(=O)N[C@@H](Cc1ccccc1)C(=O)O [L-Met-L-Phe] (H-Met-Phe-OH)
- Produced peptide [1]: 28.5 mM
- Produced peptide [2, 6]: 34.0 mM
- Produced peptide [3, 7]: 8.9 mM

Molecule: N[C@@H](CO)C(=O)N[C@@H](CO)C(=O)O [L-Ser-L-Ser] (H-Ser-Ser-OH)
- Produced peptide [1]: 29.0 mM
- Produced peptide [2, 6]: 38.0 mM
- Produced peptide [3, 7]: 9.9 mM

Molecule: CC(C)C[C@H](NC(=O)[C@@H](N)[C@@H](C)O)C(=O)O [L-Thr-L-Leu] (H-Thr-Leu-OH)
- Produced peptide [1]: 23.0 mM
- Produced peptide [2, 6]: 28.4 mM
- Produced peptide [3, 7]: 15.3 mM

Molecule: CSCC[C@H](NC(=O)[C@@H](N)C(C)C)C(=O)O [L-Val-L-Met] (H-Val-Met-OH)
- Produced peptide [1]: 10.5 mM
- Produced peptide [2, 6]: 10.3 mM
- Produced peptide [3, 7]: 6.8 mM

Molecule: NC(=O)CC[C@H](NC(=O)[C@@H](N)CC(=O)O)C(=O)O [α-L-Asp-L-Gln] (H-Asp-Gln-OH)
- Produced peptide ([3]; Table 15-2, L-Gln 150 mM): 0.05 mM
- Produced peptide (mM) ([4]; L-amino acid methyl ester hydrochloride 100 mM, 150 mM L-glutamine): tr

Molecule: Bromelain
- L-Ala-L-Gln production rate [5]: 0.0062 mM/min
- Ratio of L-Ala-L-Gln production rate per enzyme unit weight [5]: 0.0010

Molecule: Chymopapain: thiol endopeptidase described in EP 359399B1, purified enzyme manufactured by Sigma
- L-Ala-L-Gln production rate [5]: 0.0100 mM/min
- Ratio of L-Ala-L-Gln production rate per enzyme unit weight [5]: 0.0013

Molecule: Ficin
- L-Ala-L-Gln production rate [5]: 0.0096 mM/min
- Ratio of L-Ala-L-Gln production rate per enzyme unit weight [5]: 0.0017

B1: Papain: thiol endopeptidase described in EP 359399B1, purified enzyme manufactured by Sigma (protein, UniProt P00784 134-345, looked up)
Papain: IPEYVDWRQKGAVTPVKNQGSCGSCWAFSAVVTIEGIIKIRTGNLNEYSEQELLDCDRRSYGCNGGYPWSALQLVAQYGIHYRNTYPYEGVQRYCRSREKGPYAAKTDGVRQVQPYNEGALLYSIANQPVSVVLEAAGKDFQLYRGGIFVGPCGNKVDHAVAAVGYGPNYILIKNSWGTGWGENGYIRIKRGTGNSYGVCGLYTSSFYPVKN
- L-Ala-L-Gln production rate [5]: 0.0106 mM/min
- Ratio of L-Ala-L-Gln production rate per enzyme unit weight [5]: 0.0021

B2: Carboxypeptidase Y: known enzyme described in EP 278787A1, purified enzyme manufactured by Sigma (protein, UniProt P00729 112-532, looked up)
Carboxypeptidase Y: KIKDPKILGIDPNVTQYTGYLDVEDEDKHFFFWTFESRNDPAKDPVILWLNGGPGCSSLTGLFFELGPSSIGPDLKPIGNPYSWNSNATVIFLDQPVNVGFSYSGSSGVSNTVAAGKDVYNFLELFFDQFPEYVNKGQDFHIAGESYAGHYIPVFASEILSHKDRNFNLTSVLIGNGLTDPLTQYNYYEPMACGEGGEPSVLPSEECSAMEDSLERCLGLIESCYDSQSVWSCVPATIYCNNAQLAPYQRTGRNVYDIRKDCEGGNLCYPTLQDIDDYLNQDYVKEAVGAEVDHYESCNFDINRNFLFAGDWMKPYHTAVTDLLNQDLPILVYAGDKDFICNWLGNKAWTDVLPWKYDEEFASQKVRNWTASITDEVAGEVKSYKHFTYLRVFNGGHMVPFDVPENALSMVNEWIHGGFSL
- L-Ala-L-Gln production rate [5]: 0.0257 mM/min
- Ratio of L-Ala-L-Gln production rate per enzyme unit weight [5]: 0.0191
